Read-outs that look alike come from different tables or passages of the source.
Key:
[1] = test system: HhaI; assay: Secondary screen, fluorescence assay with HhaI endonuclease; assay type: biochemical; conditions: compound titration in the HTS assay
[2] = molecular target: T1, ERCC1-XPF (Homo sapiens, UniProt P07992+Q92889); assay: HTS fluorescence assay of ERCC1-XPF endonuclease activity; assay type: biochemical
T1 construct: made in house; host or cells: Sf9 insect cells, baculovirus (obtained from Aziz Sancar)
T1 sequence (Q92889 1-916): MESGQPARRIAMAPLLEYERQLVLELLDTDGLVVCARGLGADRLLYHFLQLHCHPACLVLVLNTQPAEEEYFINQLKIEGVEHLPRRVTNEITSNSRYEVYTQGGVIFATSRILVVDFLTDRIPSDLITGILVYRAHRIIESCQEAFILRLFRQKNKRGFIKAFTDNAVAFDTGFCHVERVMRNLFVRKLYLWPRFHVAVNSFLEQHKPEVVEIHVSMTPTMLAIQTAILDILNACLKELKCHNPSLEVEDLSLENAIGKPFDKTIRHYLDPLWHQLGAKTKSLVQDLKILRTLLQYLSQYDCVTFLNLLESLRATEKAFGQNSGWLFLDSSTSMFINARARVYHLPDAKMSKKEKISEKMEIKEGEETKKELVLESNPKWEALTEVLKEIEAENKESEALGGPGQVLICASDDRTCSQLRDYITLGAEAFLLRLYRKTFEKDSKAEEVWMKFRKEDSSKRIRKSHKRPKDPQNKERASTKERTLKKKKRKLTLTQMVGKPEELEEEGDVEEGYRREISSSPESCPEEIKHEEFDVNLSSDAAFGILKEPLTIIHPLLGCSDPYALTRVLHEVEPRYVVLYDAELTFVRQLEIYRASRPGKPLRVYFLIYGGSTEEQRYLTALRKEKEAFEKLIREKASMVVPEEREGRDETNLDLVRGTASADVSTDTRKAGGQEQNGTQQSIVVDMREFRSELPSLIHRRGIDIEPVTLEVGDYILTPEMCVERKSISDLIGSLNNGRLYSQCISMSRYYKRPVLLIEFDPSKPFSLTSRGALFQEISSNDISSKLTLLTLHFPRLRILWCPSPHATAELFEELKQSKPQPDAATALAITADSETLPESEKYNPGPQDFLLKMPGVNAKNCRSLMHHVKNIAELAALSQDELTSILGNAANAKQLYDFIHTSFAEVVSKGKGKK
T1 sequence (P07992 1-297): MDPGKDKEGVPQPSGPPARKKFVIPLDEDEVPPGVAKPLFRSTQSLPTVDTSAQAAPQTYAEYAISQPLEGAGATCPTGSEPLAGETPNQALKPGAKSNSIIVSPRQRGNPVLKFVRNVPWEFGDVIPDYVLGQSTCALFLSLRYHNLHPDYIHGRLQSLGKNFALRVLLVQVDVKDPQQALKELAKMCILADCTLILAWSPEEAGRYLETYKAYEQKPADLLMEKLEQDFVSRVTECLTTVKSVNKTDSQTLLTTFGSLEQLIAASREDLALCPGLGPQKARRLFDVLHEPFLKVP
Text: To screen for ERCC1-XPF inhibition, an existing in vitro assay was optimized to a 96-well plate format to allow for screening of compound libraries (NCI-DTP diversity set). These compounds and subsequent vialed compounds were from the Drug Synthesis and Chemistry Branch, Developmental Therapeutics Program, Division of Cancer Treatment and Diagnosis at the National Cancer Institute. We used purified ERCC1-XPF (Supplementary Figure S1) and describe the purification procedure in Supplementary Information. The initial cuvette-based assay was optimized for DNA, MgCl2 concentrations as well as the incubation time to be used in the fluorescence assay in a 96 well plate format (Supplementary Figure S2). The assay consists of a 10 nM DNA (Q+Fl substrate annealed, described below) and 7.5 nM ERCC1-XPF protein in buffer containing 50 mM Tris-HCl pH8.0, 2 mM MgCl2, 0.1 mM BSA, and 0.5 mM β-mercaptoethanol. For preliminary screening, 150 μL of DNA was added to each well and the fluorescence signal was measured at 525 nm following excitation at 485 nm. Compounds or controls were then added to individual wells for a total of 80 compounds on each plate and the fluorescent signal was re-measured. We initially ran the screen using 50 μM compound and then repeated using 10 μM compound. 16 controls were used per plate, which consisted of buffer alone, DNA alone, ERCC1-XPF alone, 10 nM fluorescein ssDNA (positive signal), and 10 nM Q-Fl DNA with 7.5 nM ERCC1-XPF (positive signal). 7.5 nM ERCC1-XPF was added to each well containing the compounds and DNA and incubated for 30 minutes at 37°C after which the fluorescent signal was measured again.
The synthetic DNA substrate mimics a native forked ssDNA-dsDNA substrate of ERCC1-XPF (Figure 1A). This forked DNA substrate has a dsDNA region (14 bases) and a region containing two ssDNA flaps (12 bases each). One 26-mer DNA oligonucleotide contains a site-specific fluorescein modification at the indicated position (Fl Oligo: 5' - GCCAGCGCTCGGAT(AminoC6dT)(FLSN) TTTTTTTTTTT). The semi-complementary strand was synthesized containing a DABCYL quencher (Q) molecule at the depicted position (Q Oligo: 5' - TTTTTTTTTTT (AminoC6dT)(Dabcyl) ATCCGAGCGCTGGC; Figure 1A). The fluorescein (*) molecule has an excitation peak centered at 485 nm and an emission peak centered at 525 nm. The quencher (Q) molecule is able to quench the fluorescence signal of the fluorescein when it is in close proximity. The design of the semi-duplex DNA substrate is such that the fluorescein and DABCYL quencher are directly opposite one another at the double-stranded and single-stranded DNA junction (Figure 1A). […] Upon cleavage by ERCC1-XPF, (~4-5 bases from the dsDNA-ssDNA) the fluorescein label on the cleaved DNA is released into solution and results in a significant increase in fluorescence as the quencher is no longer in close proximity. The DNA substrate is also incorporated with a restriction enzyme site (HhaI) within the duplex DNA that results in a cleavage pattern similar to ERCC1-XPF. This serves as a positive control and allows assessment of ERCC1-XPF cleavage product. This DNA substrate is used in the solution based fluorescence screening assay to screen for inhibitors of ERCC1-XPF endonuclease activity. In the 96 well platform, the Z factor was calculated to be ~0.87 indicating a highly robust assay and highly suitable for a HTS. A Molecular Devices Spectramax M5 plate reader was used for fluorescence detection. The DNA substrate was the same for gel-based assays besides the fluorescent/quencher modifications and 5'-labeling using γ-ATP^32. For the secondary screen, the reaction was setup in a tube with 10 nM DNA, 7.5 nM XPF-ERCC1, 20 U/ml of HhaI, or 7.5 nM XPG (Supplementary Figure S3A) in nuclease reaction buffer with compound titration and incubated at 37°C for 30 minutes. The reaction was stopped by chelating the metal in the buffer and read in the Spectramax M5 plate reader.

[3] = molecular target: T1, ERCC1-XPF; assay: EMSA, binding of ERCC1-XPF to DNA; conditions: for effect on binding of purified ERCC1-XPF to DNA: compound titration, concentrations used in further in vitro experiments
Description: In order to study if the compounds' inhibitory activity of ERCC1-XPF incision is due to inhibition of DNA binding ability, we performed EMSAs [23]. […] In this assay, we incubated the titrated Hit 1 or 2 respectively with purified ERCC1-XPF on ice and reactions were initiated by the addition of the 5'-[^32P] radiolabeled DNA substrate 37°C. The samples were separated on a 10% native gel and the products were visualized via phosphorimager analysis.
Sciences Core at Karmanos Cancer Institute using DNA Binding-electrophoretic mobility shift assay
was used for testing the effect of compounds on the DNA
in SF9 insect cells using a baculovirus expression system requires metal for DNA incision, MgCl2 was excluded
0.1M EDTA was added to the
Post incubation, glutaraldehyde was added to a final
column, which was initially loaded and washed with a low minutes at 37°C. The reaction was run on a 10% native

[4] = IC50s calculated by CompuSyn, SD from 3 plots, read-out: ERCC1-XPF IC50

Row | Compound | effect on HhaI activity [1] | IC50 [2, 4] [nM] | effect on binding of purified ERCC1-XPF to DNA [3] | effect on binding of ERCC1-XPF to DNA at the highest concentrations ([3]; highest concentrations) | IC50 ([2]; read-out: 50% inhibition of ERCC1-XPF) [nM]
1 | Cc1ccc(S(=O)(=O)Oc2cc(S(=O)(=O)O)cc3cc(S(=O)(=O)O)cc(N)c23)cc1 [NSC16168] | no effect | 420 ± 112 | does not affect DNA binding of ERCC1-XPF | minor effect on the DNA binding | 
2 | Oc1cc(O)c2c(c1)OC(c1ccc(O)c(O)c1)C(O)C2c1c(O)cc(O)c2c1OC(c1ccc(O)c(O)c1)C(O)C2 (centres unmarked) [NSC143099] | no effect on HhaI activity | 22 ± 3 | does not affect the binding of purified ERCC1-XPF to DNA |  | ~22

From PMC5342726, “Identification of small molecule inhibitors of ERCC1-XPF that inhibit DNA repair and potentiate cisplatin efficacy in cancer cells” (Oncotarget, 2016)
